Assay [1] in a line: Luminescence-based cell-based high throughput dose response assay to identify activators of the DAF-12 from the parasite S. stercoralis (ssDAF-12). The format is functional.
The target in assay [2] is T1, Oxysterols receptor LXR-beta (Homo sapiens, UniProt P55055).
T1 sequence (P55055 whole entry): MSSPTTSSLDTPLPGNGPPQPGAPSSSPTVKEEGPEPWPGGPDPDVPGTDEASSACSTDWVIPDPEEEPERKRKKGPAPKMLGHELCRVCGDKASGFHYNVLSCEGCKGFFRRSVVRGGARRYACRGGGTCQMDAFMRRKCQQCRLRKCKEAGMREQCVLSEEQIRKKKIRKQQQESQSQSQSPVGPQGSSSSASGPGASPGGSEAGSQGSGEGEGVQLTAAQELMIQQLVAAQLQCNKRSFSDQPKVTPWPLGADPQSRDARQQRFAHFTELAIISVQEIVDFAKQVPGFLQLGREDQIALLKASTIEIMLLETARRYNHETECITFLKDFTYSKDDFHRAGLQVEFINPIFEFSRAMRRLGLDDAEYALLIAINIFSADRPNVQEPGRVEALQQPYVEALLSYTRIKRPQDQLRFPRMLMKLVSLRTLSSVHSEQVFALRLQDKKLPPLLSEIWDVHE
The assay is described as follows: LXR agonists, Gal4 luciferase reporter, dose response, counter-screen for ssDAF-12 agonist project, cell-based, luminescence, HEK293, S. stercoralis campaign (AID 720737). The format is functional. Conditions: read-out: IC50 (the source's name). (Reporter assays use an easily measured gene product as a stand-in for the process of interest.)

The target of assay [3] is Voltage-dependent T-type calcium channel subunit alpha-1H (Homo sapiens, UniProt O95180). It is filed as functional.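 Also: channel activity triggered by adding a high calcium stimulation buffer.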
In the next assay the target is T2, Coagulation factor XII (Homo sapiens, UniProt P00748).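 Also: activated factor XIIa alpha cleaving a fluorogenic AMC peptide substrate; inhibitor potency from loss of enzyme activity.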
T2 sequence (P00748 whole entry): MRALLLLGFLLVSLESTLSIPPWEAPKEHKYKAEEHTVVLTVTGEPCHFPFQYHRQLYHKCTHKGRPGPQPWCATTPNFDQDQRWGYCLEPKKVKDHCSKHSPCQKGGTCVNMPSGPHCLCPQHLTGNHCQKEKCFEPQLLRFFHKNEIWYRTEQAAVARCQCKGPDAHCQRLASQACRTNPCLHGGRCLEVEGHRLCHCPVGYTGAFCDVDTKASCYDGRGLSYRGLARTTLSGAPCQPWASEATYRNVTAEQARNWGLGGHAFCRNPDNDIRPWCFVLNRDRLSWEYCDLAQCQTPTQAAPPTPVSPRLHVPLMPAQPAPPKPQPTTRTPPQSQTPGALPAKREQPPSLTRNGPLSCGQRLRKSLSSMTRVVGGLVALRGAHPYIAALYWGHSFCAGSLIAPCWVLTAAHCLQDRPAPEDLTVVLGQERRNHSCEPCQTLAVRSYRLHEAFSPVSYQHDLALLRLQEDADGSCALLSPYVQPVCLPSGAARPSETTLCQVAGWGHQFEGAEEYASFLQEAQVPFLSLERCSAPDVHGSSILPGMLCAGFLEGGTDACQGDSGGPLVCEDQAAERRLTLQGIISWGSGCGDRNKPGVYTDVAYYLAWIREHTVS
It is filed as functional.

Assay [4] is described as follows: cells. It is filed as functional, cell-based.
The target of assay [5] is T3, Trace amine-associated receptor 1 (Homo sapiens, UniProt Q96RJ0).
T3 sequence (Q96RJ0 whole entry): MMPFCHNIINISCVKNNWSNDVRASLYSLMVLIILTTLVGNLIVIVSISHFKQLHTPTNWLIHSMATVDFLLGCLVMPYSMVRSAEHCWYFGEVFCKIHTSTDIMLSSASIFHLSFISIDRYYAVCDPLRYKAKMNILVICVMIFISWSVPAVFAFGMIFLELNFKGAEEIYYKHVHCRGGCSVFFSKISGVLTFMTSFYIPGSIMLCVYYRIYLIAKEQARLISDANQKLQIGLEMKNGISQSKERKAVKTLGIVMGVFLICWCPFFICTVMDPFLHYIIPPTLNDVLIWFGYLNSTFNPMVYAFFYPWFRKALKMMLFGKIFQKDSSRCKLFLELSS
The assay is described as follows: Fluorescence-based cell-based high throughput dose response assay to identify agonists of the human trace amine associated receptor 1 (TAAR1). It is filed as functional.

Assay [6] deals with T3, Trace amine-associated receptor 1. Nature of the assay: Counterscreen for agonists of the human trace amine associated receptor 1 (hTAAR1): Fluorescence-based cell-based high throughput dose response assay to identify hTAAR1 agonist that also desensitize TAAR1 receptor response. The format is functional.
Assay [7] in a line: cells. It is filed as functional, cell-based. This is another data set of the same source.
In another assay the target is Paired box protein Pax-8 (Homo sapiens, UniProt Q06710). The assay is described as follows: inhibitors of PAX8-driven TPO luciferase reporter, dose response, RMG-I cells, cherry-pick (AID 687027).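 Also: luciferase reporter driven by Pax8 target thyroperoxidase promoter measured by SteadyGlo luminescence.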 The format is functional, cell-based.
Assay [8] in a line: non-specific cell cytotoxicity, dose response, cytotoxicity control for PAX8 inhibitor project, plate reader, dry powder samples (AID 743021). The format is functional, cell-based.
Assay [9] in a line: inhibitors of PGC1a acetylation in cells, dose response, cell-based, cherry-picked samples (AID 720514).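 Also: potency may reflect raised or lowered acetylation signal.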 It is filed as functional.
Assay [10] is described as follows: NIH:OVCAR-3 ovarian cancer cell cytotoxicity, dose response, PAX8 inhibitor project, plate reader, dry powder samples (AID 743044). It is filed as functional, cell-based.
Assay [11] is described as follows: cytotoxicity in OVCAR8 ovarian cancer cells, dose response, PAX8 project, cell-based, plate reader, dry powder samples (AID 743197). The format is functional. Conditions: OVCAR-8.
The next assay concerns the target Major prion protein (Homo sapiens, UniProt P04156). It is filed as functional, cell-based.
Assay [12] is described as follows: cells.
The nature of assay [13]: A549 cell cytotoxicity, dose response, cytotoxicity control, plate reader, cherry-pick, antagonist series (AID 743412). The format is functional, cell-based.
The nature of assay [14]: HepG2 cell cytotoxicity, dose response, cytotoxicity control, plate reader, cherry-pick, antagonist series (AID 743416). It is filed as functional, cell-based.
A short description of assay [15]: IGROV1 ovarian cancer cell cytotoxicity, dose response, PAX8 inhibitor project, plate reader, dry powder samples (AID 743043). It is filed as functional, cell-based. To be noted: IGROV-1.
Assay [16] is described as follows: MC4R antagonists, dose response, counter-screen for LGR2 antagonist project, cell-based, plate reader, cherry pick (AID 743444).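 Also: transfected HEK 293 cells stimulated with alpha-MSH peptide; potency of inhibitors of the alpha-MSH evoked signal.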 The format is functional.
A short description of assay [17]: HEK293 cell cytotoxicity, dose response, cytotoxicity control, plate reader, cherry-picked samples (AID 743446). It is filed as functional, cell-based.
The target of a further assay is Genome polyprotein (dengue virus type 2, UniProt P29990). The assay is described as follows: Dengue-2 NS5 methyltransferase inhibitors, primary screen, biochemical, confirmation dose response (AID 588689). It is filed as functional.
A further assay addresses T4, Caspase-6 (Homo sapiens, UniProt P55212).
T4 sequence (P55212 whole entry): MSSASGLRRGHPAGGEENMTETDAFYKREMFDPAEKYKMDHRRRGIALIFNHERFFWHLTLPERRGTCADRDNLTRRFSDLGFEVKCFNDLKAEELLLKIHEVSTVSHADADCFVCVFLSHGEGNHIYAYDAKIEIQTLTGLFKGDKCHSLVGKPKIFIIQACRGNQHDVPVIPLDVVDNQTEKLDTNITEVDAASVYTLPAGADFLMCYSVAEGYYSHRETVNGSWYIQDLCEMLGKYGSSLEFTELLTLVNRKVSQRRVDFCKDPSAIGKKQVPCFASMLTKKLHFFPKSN
The assay is described as follows: human caspase-6 inhibitors, dose response, biochemical, VEID-R110 fluorescence, cherry-pick (AID 720632).

We go through twelve compounds from ChEMBL document CHEMBL1201862, “PubChem BioAssay data set” (2004).

Active and inactive are the calls of the source. A value given as a limit tells only on which side of the number the result lay.

For `Cc1ccc(NC(=O)Nc2cccc(C(F)(F)F)c2)nc1`, in assay [1], the IC50 was > 67.6 µM (inactive). Further, the EC50 in [2] was > 67.6 µM (inactive).

In the case of `Cc1ccc(-c2nc(CS(=O)(=O)CC(=O)N3CCc4ccccc4C3)c(C)o2)cc1`, the EC50 is 2.21 µM (active) in assay [3], 2.23 µM (active) in [5] and > 29.9 µM (inactive) in the assay “cells [7]”. For the same compound, the IC50 is > 50 µM (inactive) at Coagulation factor XII, > 29.9 µM (inactive) in the assay “cells [4]” and 5.4 µM (active) in assay [6].

As for `COC(=O)C1=C(C)N(Cc2cccc(C(F)(F)F)c2)C(NCc2ccc(OC)cc2)=NC1c1cccc(F)c1` (stereo not drawn), the AC50 at Paired box protein Pax-8 was 11.5 µM (active); in assay [8], 33.3 µM (active).

With `CC(C)C#Cc1ccc2c(c1)O[C@@H](CN(C)Cc1ccccc1)[C@@H](C)CN([C@@H](C)CO)S2(=O)=O`, the half-maximal activity concentration (AC50) in assay [9] was 16 µM (active).

Turning to `COCc1ccc(CN2CCC(n3nccc3NC(=O)c3ccc4c(c3)OCO4)CC2)o1`, the AC50 in assay [9] is 29.9 µM (active).

`Cc1ccc(S(=O)(=O)N(C)C[C@H]2Oc3cc(C#Cc4ccncc4)ccc3S(=O)(=O)N([C@H](C)CO)C[C@H]2C)cc1`: the AC50 is 4.03 µM (active) on Paired box protein Pax-8, 4.27 µM (active) in assay [9], 9.03 µM (active) in assay [10] and 17.4 µM (active) in assay [11].

Consider `Cc1cc(SCCC(=O)O)nc2c(C)cccc12`, for which the IC50 was 4.67 µM (active) at Major prion protein and > 138 µM (inactive) in the assay “cells [12]”.

For `C[C@@H]1CCCCO[C@H](CN(C)CC2CCCCC2)[C@H](C)CN([C@H](C)CO)C(=O)c2cc(NS(=O)(=O)c3ccccc3)ccc2O1`, the AC50 is 20.1 µM (active) at Paired box protein Pax-8; 55 µM (active) in [10]; 17.1 µM (active) in assay [13]; 27.6 µM (active) in assay [14]; 57.1 µM (active) in [15]; 39.7 µM (active) in assay [8]. In addition, the results for the AC50 in assay [16], in assay [11] and in assay [17] were 42.6 µM (active), > 70 µM (inactive) and 30.8 µM (active), respectively.

Consider `COC(=O)c1c(C)oc2c1cc(NS(=O)(=O)c1ccc(C(=O)O)cc1)c1ccccc12`, for which, at Genome polyprotein, the IC50 was 69 µM (active). Also, on Caspase-6, the AC50 is 22.6 µM (active).

For `COc1ccc(-c2ccc([C@@H]3[C@@H]4CN(C(=O)Nc5cccc(F)c5)C[C@H]3N4)cc2)cc1`, the AC50 on Paired box protein Pax-8 was 5.09 µM (active); in assay [10], 18.9 µM (active); in [15], 28.4 µM (active); in assay [8] it was 41 µM (active); in assay [11] it was 58.5 µM (active).

Regarding `Cc1ccc(NC(=O)c2ccccn2)c(Br)c1`, in [1], the IC50 was > 67.5 µM (inactive). For the same compound, the EC50 in assay [2] is > 67.5 µM (inactive).

Regarding `CN(CC(=O)Nc1cccc(F)c1)C(=O)c1cccc(S(=O)(=O)N2CCN(Cc3ccccc3)CC2)c1`, in assay [1], the IC50 is > 67.5 µM (inactive). Besides, in assay [2], the EC50 was > 67.5 µM (inactive).

In general, IC50 refers to the point on the concentration scale where inhibition reaches its midpoint. One may read the AC50 as the concentration giving half of the maximal activity seen.
